Source: PubChem BioAssay (NCI)
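Tested at 5 concentrations; 48 h exposure; 96-well plates; endpoints linearly interpolated, else capped at highest concentration. TGI is the concentration that stops growth completely.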

System: HS 578T breast
Test: NCI anticancer screen, dose series, 48 h

Q: With `COc1ccc(C(c2ccc(OC)cc2)N2C(=O)CCC2C(=O)O)cc1` (stereo not given) as the compound, how does the TGI read?
A: > 100 µM

Q: Which TGI does the source give for `CCOC(=O)C1=C(C#N)S(=O)(=O)c2c(oc(C)c2C)N1` here?
A: > 100 µM

Q: For `Cc1cccc(/C=N/NC(=S)Nc2ccc(Cl)cc2)n1`, which TGI is on record?
A: 17.5 µM

Q: For `Cc1ccc(O)c(-c2cc(-c3cccc(Br)c3)c(C#N)c(N)n2)c1`, which TGI is on record?
A: 62.8 µM

Q: For `O=[N+]([O-])c1ccc(NC(=S)N=Nc2c(O)[nH]c3ccccc23)cc1`, which TGI is on record?
A: 59.8 µM

System: MOLT-4 leukemia
Test: NCI anticancer screen, dose series, 48 h

Q: Which TGI does the source give for `COc1ccc(C(c2ccc(OC)cc2)N2C(=O)CCC2C(=O)O)cc1` (stereo not given) here?
A: > 100 µM

Q: For `CCOC(=O)C1=C(C#N)S(=O)(=O)c2c(oc(C)c2C)N1`, which TGI is on record?
A: > 100 µM

Q: Which TGI does the source give for `Cc1cccc(/C=N/NC(=S)Nc2ccc(Cl)cc2)n1` here?
A: 10.9 µM

Q: Which TGI does the source give for `Cc1ccc(O)c(-c2cc(-c3cccc(Br)c3)c(C#N)c(N)n2)c1` here?
A: 77.1 µM

Q: With `O=[N+]([O-])c1ccc(NC(=S)N=Nc2c(O)[nH]c3ccccc23)cc1` as the compound, how does the TGI read?
A: 19.8 µM

System: SNB-75 CNS
Test: NCI anticancer screen, dose series, 48 h

Q: Which TGI does the source give for `COc1ccc(C(c2ccc(OC)cc2)N2C(=O)CCC2C(=O)O)cc1` (stereo not given) here?
A: > 100 µM

Q: How did the TGI turn out when `CCOC(=O)C1=C(C#N)S(=O)(=O)c2c(oc(C)c2C)N1` was run?
A: > 100 µM

Q: How did the TGI turn out when `Cc1cccc(/C=N/NC(=S)Nc2ccc(Cl)cc2)n1` was run?
A: 16.1 µM

Q: For `O=[N+]([O-])c1ccc(NC(=S)N=Nc2c(O)[nH]c3ccccc23)cc1`, which TGI is on record?
A: 31.4 µM

System: HOP-62 NSCLC
Test: NCI anticancer screen, dose series, 48 h

Q: `COc1ccc(C(c2ccc(OC)cc2)N2C(=O)CCC2C(=O)O)cc1` (stereo not given) was tested. Which TGI did it give?
A: > 100 µM

Q: How did the TGI turn out when `CCOC(=O)C1=C(C#N)S(=O)(=O)c2c(oc(C)c2C)N1` was run?
A: > 100 µM

Q: How did the TGI turn out when `Cc1cccc(/C=N/NC(=S)Nc2ccc(Cl)cc2)n1` was run?
A: 11.9 µM

Q: `Cc1ccc(O)c(-c2cc(-c3cccc(Br)c3)c(C#N)c(N)n2)c1` was tested. Which TGI did it give?
A: > 100 µM

Q: For `O=[N+]([O-])c1ccc(NC(=S)N=Nc2c(O)[nH]c3ccccc23)cc1`, which TGI is on record?
A: 18.1 µM

System: SN12C renal
Test: NCI anticancer screen, dose series, 48 h

Q: `COc1ccc(C(c2ccc(OC)cc2)N2C(=O)CCC2C(=O)O)cc1` (stereo not given) was tested. Which TGI did it give?
A: > 100 µM

Q: How did the TGI turn out when `CCOC(=O)C1=C(C#N)S(=O)(=O)c2c(oc(C)c2C)N1` was run?
A: > 100 µM

Q: With `Cc1cccc(/C=N/NC(=S)Nc2ccc(Cl)cc2)n1` as the compound, how does the TGI read?
A: 34 µM

Q: `Cc1ccc(O)c(-c2cc(-c3cccc(Br)c3)c(C#N)c(N)n2)c1` was tested. Which TGI did it give?
A: 49.7 µM

Q: How did the TGI turn out when `O=[N+]([O-])c1ccc(NC(=S)N=Nc2c(O)[nH]c3ccccc23)cc1` was run?
A: 63 µM

System: SNB-19 CNS
Test: NCI anticancer screen, dose series, 48 h

Q: How did the TGI turn out when `COc1ccc(C(c2ccc(OC)cc2)N2C(=O)CCC2C(=O)O)cc1` (stereo not given) was run?
A: > 100 µM

Q: Which TGI does the source give for `CCOC(=O)C1=C(C#N)S(=O)(=O)c2c(oc(C)c2C)N1` here?
A: > 100 µM

Q: With `Cc1cccc(/C=N/NC(=S)Nc2ccc(Cl)cc2)n1` as the compound, how does the TGI read?
A: 22.2 µM

Q: For `Cc1ccc(O)c(-c2cc(-c3cccc(Br)c3)c(C#N)c(N)n2)c1`, which TGI is on record?
A: 45.7 µM

Q: How did the TGI turn out when `O=[N+]([O-])c1ccc(NC(=S)N=Nc2c(O)[nH]c3ccccc23)cc1` was run?
A: 36.4 µM

System: CAKI-1 renal
Test: NCI anticancer screen, dose series, 48 h

Q: With `COc1ccc(C(c2ccc(OC)cc2)N2C(=O)CCC2C(=O)O)cc1` (stereo not given) as the compound, how does the TGI read?
A: > 100 µM

Q: `CCOC(=O)C1=C(C#N)S(=O)(=O)c2c(oc(C)c2C)N1` was tested. Which TGI did it give?
A: > 100 µM

Q: For `Cc1cccc(/C=N/NC(=S)Nc2ccc(Cl)cc2)n1`, which TGI is on record?
A: 13.3 µM

Q: Which TGI does the source give for `Cc1ccc(O)c(-c2cc(-c3cccc(Br)c3)c(C#N)c(N)n2)c1` here?
A: 75.6 µM

Q: How did the TGI turn out when `O=[N+]([O-])c1ccc(NC(=S)N=Nc2c(O)[nH]c3ccccc23)cc1` was run?
A: 21.7 µM

System: NCI-H226 lung
Test: NCI anticancer screen, dose series, 48 h

Q: With `COc1ccc(C(c2ccc(OC)cc2)N2C(=O)CCC2C(=O)O)cc1` (stereo not given) as the compound, how does the TGI read?
A: > 100 µM

Q: Which TGI does the source give for `CCOC(=O)C1=C(C#N)S(=O)(=O)c2c(oc(C)c2C)N1` here?
A: > 100 µM

Q: Which TGI does the source give for `Cc1ccc(O)c(-c2cc(-c3cccc(Br)c3)c(C#N)c(N)n2)c1` here?
A: 44.1 µM

System: RPMI-8226 leukemia
Test: NCI anticancer screen, dose series, 48 h

Q: Which TGI does the source give for `COc1ccc(C(c2ccc(OC)cc2)N2C(=O)CCC2C(=O)O)cc1` (stereo not given) here?
A: > 100 µM

Q: With `CCOC(=O)C1=C(C#N)S(=O)(=O)c2c(oc(C)c2C)N1` as the compound, how does the TGI read?
A: > 100 µM

Q: Which TGI does the source give for `Cc1cccc(/C=N/NC(=S)Nc2ccc(Cl)cc2)n1` here?
A: > 100 µM

Q: How did the TGI turn out when `Cc1ccc(O)c(-c2cc(-c3cccc(Br)c3)c(C#N)c(N)n2)c1` was run?
A: 28 µM

Q: Which TGI does the source give for `O=[N+]([O-])c1ccc(NC(=S)N=Nc2c(O)[nH]c3ccccc23)cc1` here?
A: > 100 µM

System: SF-539 CNS
Test: NCI anticancer screen, dose series, 48 h

Q: For `COc1ccc(C(c2ccc(OC)cc2)N2C(=O)CCC2C(=O)O)cc1` (stereo not given), which TGI is on record?
A: > 100 µM

Q: With `CCOC(=O)C1=C(C#N)S(=O)(=O)c2c(oc(C)c2C)N1` as the compound, how does the TGI read?
A: > 100 µM

Q: Which TGI does the source give for `Cc1cccc(/C=N/NC(=S)Nc2ccc(Cl)cc2)n1` here?
A: 12.7 µM

Q: How did the TGI turn out when `Cc1ccc(O)c(-c2cc(-c3cccc(Br)c3)c(C#N)c(N)n2)c1` was run?
A: 75.5 µM

Q: With `O=[N+]([O-])c1ccc(NC(=S)N=Nc2c(O)[nH]c3ccccc23)cc1` as the compound, how does the TGI read?
A: 31.1 µM

System: NCI-H522 lung
Test: NCI anticancer screen, dose series, 48 h

Q: Which TGI does the source give for `COc1ccc(C(c2ccc(OC)cc2)N2C(=O)CCC2C(=O)O)cc1` (stereo not given) here?
A: > 100 µM

Q: `CCOC(=O)C1=C(C#N)S(=O)(=O)c2c(oc(C)c2C)N1` was tested. Which TGI did it give?
A: > 100 µM

Q: `Cc1cccc(/C=N/NC(=S)Nc2ccc(Cl)cc2)n1` was tested. Which TGI did it give?
A: 4.93 µM

Q: Which TGI does the source give for `Cc1ccc(O)c(-c2cc(-c3cccc(Br)c3)c(C#N)c(N)n2)c1` here?
A: 47.8 µM

Q: With `O=[N+]([O-])c1ccc(NC(=S)N=Nc2c(O)[nH]c3ccccc23)cc1` as the compound, how does the TGI read?
A: 34.9 µM

System: UACC-257 melanoma
Test: NCI anticancer screen, dose series, 48 h

Q: `COc1ccc(C(c2ccc(OC)cc2)N2C(=O)CCC2C(=O)O)cc1` (stereo not given) was tested. Which TGI did it give?
A: > 100 µM

Q: With `CCOC(=O)C1=C(C#N)S(=O)(=O)c2c(oc(C)c2C)N1` as the compound, how does the TGI read?
A: > 100 µM

Q: `Cc1cccc(/C=N/NC(=S)Nc2ccc(Cl)cc2)n1` was tested. Which TGI did it give?
A: 18.9 µM

Q: For `Cc1ccc(O)c(-c2cc(-c3cccc(Br)c3)c(C#N)c(N)n2)c1`, which TGI is on record?
A: 52 µM

Q: How did the TGI turn out when `O=[N+]([O-])c1ccc(NC(=S)N=Nc2c(O)[nH]c3ccccc23)cc1` was run?
A: 47.3 µM

System: SK-OV-3 ovarian
Test: NCI anticancer screen, dose series, 48 h

Q: For `COc1ccc(C(c2ccc(OC)cc2)N2C(=O)CCC2C(=O)O)cc1` (stereo not given), which TGI is on record?
A: > 100 µM

Q: With `CCOC(=O)C1=C(C#N)S(=O)(=O)c2c(oc(C)c2C)N1` as the compound, how does the TGI read?
A: > 100 µM

Q: Which TGI does the source give for `Cc1cccc(/C=N/NC(=S)Nc2ccc(Cl)cc2)n1` here?
A: 10.8 µM

Q: How did the TGI turn out when `Cc1ccc(O)c(-c2cc(-c3cccc(Br)c3)c(C#N)c(N)n2)c1` was run?
A: 87.3 µM

Q: Which TGI does the source give for `O=[N+]([O-])c1ccc(NC(=S)N=Nc2c(O)[nH]c3ccccc23)cc1` here?
A: 14.8 µM

System: PC-3 prostate
Test: NCI anticancer screen, dose series, 48 h

Q: Which TGI does the source give for `COc1ccc(C(c2ccc(OC)cc2)N2C(=O)CCC2C(=O)O)cc1` (stereo not given) here?
A: > 100 µM

Q: For `CCOC(=O)C1=C(C#N)S(=O)(=O)c2c(oc(C)c2C)N1`, which TGI is on record?
A: > 100 µM

Q: `Cc1cccc(/C=N/NC(=S)Nc2ccc(Cl)cc2)n1` was tested. Which TGI did it give?
A: 26.2 µM

Q: How did the TGI turn out when `Cc1ccc(O)c(-c2cc(-c3cccc(Br)c3)c(C#N)c(N)n2)c1` was run?
A: 55.6 µM

Q: With `O=[N+]([O-])c1ccc(NC(=S)N=Nc2c(O)[nH]c3ccccc23)cc1` as the compound, how does the TGI read?
A: 16.6 µM

System: M14 melanoma
Test: NCI anticancer screen, dose series, 48 h

Q: For `COc1ccc(C(c2ccc(OC)cc2)N2C(=O)CCC2C(=O)O)cc1` (stereo not given), which TGI is on record?
A: > 100 µM

Q: With `CCOC(=O)C1=C(C#N)S(=O)(=O)c2c(oc(C)c2C)N1` as the compound, how does the TGI read?
A: > 100 µM

Q: `Cc1cccc(/C=N/NC(=S)Nc2ccc(Cl)cc2)n1` was tested. Which TGI did it give?
A: 7.69 µM
